Test results: patent US12662707B2, “MYC amplification drives resistance to pan-RAS inhibitors in pancreatic cancer” (The Trustees of Columbia University in the City of New York, priority 2024, dated 2026)

Legend:
[1] = system: RAS/MAPK pathway (pERK) in murine PDAC cell lines; test: Western blot of pERK, murine PDAC cell lines; assay type: cell-based; details: 1-100 nM, 2 hours
Procedure: Cells were seeded at 7.5×10^5-4×10^6 cells per well in 6-well plates or 100 mm dishes in growth medium. After overnight incubation, indicated compound (RMC-7977, IAG933 or DMSO (0.1% v/v)) were added and incubated for the indicated time points. Cells were washed twice with ice-cold PBS and lysed with NP-40 lysis buffer (Thermo Fisher Scientific, J60766), MSD Tris Lysis Buffer (MSD, R60TX-2), RIPA buffer (50 mM TRIS-HCl, pH 7.5, 150 mM NaCl, 1% NP-40, 0.5% sodium deoxycholate, 0.1% SDS) or a lysis buffer containing 1% Triton X-100, 20 mM Tris-HCl, 150 mM NaCl, and 1 mM EDTA. All lysis buffers were supplemented with protease and phosphatase inhibitors. Lysates were scraped and collected before centrifugation at 21,000×g for 10 minutes at 4° C. The protein-containing supernatants were quantified by BCA assay (Pierce, 23225) and equal quantities of protein were denatured with LDS and reducing agent at 95° C. Samples were resolved on 12% or 4-12% Bis-Tris polyacrylamide gels, then transferred to a nitrocellulose or PVDF membrane using the iBlot 2.0 system or wet transfer. Membranes were blocked in Intercept TBS buffer (LiCor, 927-60001) or 3-5% milk before probing with primary antibodies overnight at 4° C. Secondary antibodies were added as appropriate, and the membranes were imaged on a LiCor Odyssey imager. […]

[2] = system: autochthonous KPC pancreatic tumors; test: One-week study in KPC mice; assay type: in vivo, mouse; details: 50 mg/kg q.o.d.
Procedure: Tumor formation in KPC mice was monitored by bi-weekly palpation. […] Treatments were performed every other day via oral gavage for 1 week. […] Following two consecutive ultrasounds, RMC-7977-treated animals were sacrificed either 4 (n=7) or 24 hours (n=4) after last dose and Vehicle-treated animals were sacrificed between 4-24 hours post last dose. Tissue was harvested and preserved as previously described (See Xenograft studies section). Additional group of KPC mice was also treated with a single dose of RMC-7977 (n=10) or Vehicle (n=3) and tissues were harvested at 4 or 24 hours post dose as previously described.

[3] = system: autochthonous KPCY pancreatic tumors; test: Short-term study in KPCY mice; assay type: in vivo, mouse; details: daily 25 mg/kg, two weeks
Procedure: Animals were randomized into groups and treated with Vehicle (n=6) or RMC-7977 (25 mg/kg; n=8). Treatments were performed every day via oral gavage for 15 days and ultrasounds were performed on day 8 and 15. Animals were sacrificed after last dose and tissue was collected and preserved as previously described (See Xenograft studies section).

[4] = system: normal tissues (colon, skin, liver, intestines, lungs, kidneys); test: IHC and histopathology of normal tissues of KPC mice; assay type: in vivo, mouse
Procedure: Tumor formation in KPC mice was monitored by bi-weekly palpation. […] Treatments were performed every other day via oral gavage for 1 week. […] Following two consecutive ultrasounds, RMC-7977-treated animals were sacrificed either 4 (n=7) or 24 hours (n=4) after last dose and Vehicle-treated animals were sacrificed between 4-24 hours post last dose. Tissue was harvested and preserved as previously described (See Xenograft studies section). Additional group of KPC mice was also treated with a single dose of RMC-7977 (n=10) or Vehicle (n=3) and tissues were harvested at 4 or 24 hours post dose as previously described. All tissues were fixed for up to 24 hours using 10% neutral buffered formalin and then moved to 70% ethanol for long term storage. All stainings were performed on 4-μm tissue sections. Sections were deparaffinized using a Leica XL ST5010 autostainer, after which slides were subjected to heat-activated epitope retrieval. […] Slides were further blocked in serum for 1 hour, and primary antibodies were added for overnight incubation at 4° C. […] Following incubation, ImmPACT DAB peroxidase (Vector Laboratories, SK-4100) was used to develop the stain and hematoxylin was used as nuclear counterstain. Stained slides were imaged at 40× magnification. Quantitative analyses of IHC images were performed using ImageJ.

wild type RAS = details: reference 14; cited from earlier work
[5] = Tumor versus blood concentrations, all model systems tested; assay type: in vivo; details: BALB/c, C57Bl/6, KPF/FC, mouse, tumor vs whole blood, oral, read-out: Kp (concentration in tumor tissues vs blood)
Procedure: Whole blood, tumor, colon and skin tissue concentrations of RMC-7977 were determined using liquid chromatography-tandem mass spectrometry (LC-MS/MS) methods. […] After thorough mixing and centrifugation, the supernatant was directly analyzed on a Sciex 6500+ triple quadrupole mass spectrometer equipped with an ACQUITY or Shimadzu UPLC system. An ACQUITY UPLC BEH C18 or C4 […] (2.1×50 mm) column was used with gradient elution for compound separation. RMC-7977 and IS (verapamil or terfenadine) were detected by positive electrospray ionization using multiple reaction monitoring (RMC-7977: m/z 865.4/706.4 or m/z 865.3/833.5; verapamil: m/z 455.2/164.9; terfenadine: m/z 472.3/436.4). […] BA analysis on blood and tissue samples from xenograft models was run at Wuxi AppTec. BA analysis on blood and tissue samples from allograft models and GEMM was run at Revolution Medicines.

CCn1c(-c2cc(N3CCN(C4CC4)CC3)cnc2[C@H](C)OC)c2c3cc(ccc31)-c1csc(n1)C[C@H](NC(=O)[C@H]1[C@@H]3COC[C@@H]31)C(=O)N1CCC[C@H](N1)C(=O)OCC(C)(C)C2 [RMC-7977]
phosphorylation of ERK1/2 (pERK) [1]: reduced phosphorylation
impact on animal weight [2]: little impact
tumor response ([2]; KPC, 129S4/SvJae): regressions in most tumors
tumor response ([3]; KPCY, C57Bl/6): regressions in most tumors
impact on animal weight [3]: little impact
effects on apoptosis (CC3) and proliferation (Cyclin A2) in colon and skin ([4]; SD, 1 Wk and EP KPC mice, all timepoints): absent or negligible
treatment-associated histopathological feature ([4]; proximal intestines of half the treated animals, no diarrhea or weight loss): modest increase in apoptosis
affinity for wild type RAS compared to mutant variants (wild type RAS): somewhat reduced affinity
Kp [5]: > 1
